Measured values: paper PMC6934184, “Selective DNA-PKcs inhibition extends the therapeutic index of localized radiotherapy and chemotherapy” (The Journal of Clinical Investigation, 2019)

Target: T1, AMPK (A2/B2/G2) (Homo sapiens, UniProt P54646)
T1 construct: purchased Thermo Fisher Scientific (Life Technologies) SelectScreen
Experiment: SelectScreen LanthaScreen
Assay type: binding
Conditions: read-out: % displacement
In short: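 NU5455 was profiled across the SelectScreen Broad panel of kinase activity and binding assays. Z'LYTE reactions such as CSF1R ran at apparent Km ATP, while the Adapta CAMK1 assay used ATP listed as 10. Values are given as percent.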

T1 sequence (P54646 whole entry): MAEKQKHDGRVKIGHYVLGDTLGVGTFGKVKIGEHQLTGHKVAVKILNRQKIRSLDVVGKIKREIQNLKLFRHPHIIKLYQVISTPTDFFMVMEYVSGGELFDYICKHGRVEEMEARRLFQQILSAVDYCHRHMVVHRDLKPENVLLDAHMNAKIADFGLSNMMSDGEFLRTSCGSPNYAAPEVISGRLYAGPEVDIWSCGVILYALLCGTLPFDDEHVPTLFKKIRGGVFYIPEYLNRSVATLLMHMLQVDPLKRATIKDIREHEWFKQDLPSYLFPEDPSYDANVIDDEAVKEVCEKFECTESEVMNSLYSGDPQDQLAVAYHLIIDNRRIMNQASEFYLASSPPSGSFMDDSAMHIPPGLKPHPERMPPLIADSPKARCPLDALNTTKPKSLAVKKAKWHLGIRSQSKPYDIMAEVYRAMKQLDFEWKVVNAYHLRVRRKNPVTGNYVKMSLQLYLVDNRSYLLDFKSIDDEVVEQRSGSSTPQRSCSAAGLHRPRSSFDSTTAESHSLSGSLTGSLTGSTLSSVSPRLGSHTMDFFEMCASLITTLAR
T1 sequence (O43741 whole entry partner): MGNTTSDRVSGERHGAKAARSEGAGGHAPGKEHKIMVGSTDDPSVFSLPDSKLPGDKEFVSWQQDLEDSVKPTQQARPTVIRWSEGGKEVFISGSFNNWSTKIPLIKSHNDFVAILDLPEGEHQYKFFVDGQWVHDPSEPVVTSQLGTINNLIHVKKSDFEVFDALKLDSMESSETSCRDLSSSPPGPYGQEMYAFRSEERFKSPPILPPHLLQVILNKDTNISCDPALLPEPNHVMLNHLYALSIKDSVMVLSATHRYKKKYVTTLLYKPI
T1 sequence (Q9UGJ0 whole entry partner): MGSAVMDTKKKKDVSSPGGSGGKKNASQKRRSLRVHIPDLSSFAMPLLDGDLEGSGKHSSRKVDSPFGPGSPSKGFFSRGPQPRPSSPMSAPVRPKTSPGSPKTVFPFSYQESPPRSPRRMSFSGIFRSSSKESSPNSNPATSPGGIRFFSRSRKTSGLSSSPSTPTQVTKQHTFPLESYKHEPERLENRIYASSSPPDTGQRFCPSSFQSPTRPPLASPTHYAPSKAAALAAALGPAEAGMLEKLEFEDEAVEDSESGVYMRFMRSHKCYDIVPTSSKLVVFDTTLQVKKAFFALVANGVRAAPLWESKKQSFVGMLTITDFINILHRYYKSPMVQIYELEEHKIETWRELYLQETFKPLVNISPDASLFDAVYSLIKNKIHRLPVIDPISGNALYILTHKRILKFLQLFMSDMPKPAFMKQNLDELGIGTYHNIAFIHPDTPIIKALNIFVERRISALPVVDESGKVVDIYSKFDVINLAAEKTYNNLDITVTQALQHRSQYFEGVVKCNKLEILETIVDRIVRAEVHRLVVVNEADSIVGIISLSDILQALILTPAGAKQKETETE

## CN(C(=O)CN1CCOCC1)c1ccc2sc3c(-c4cccc5c(=O)cc(N6CC7CCC(C6)O7)oc45)cccc3c2c1 [NU5455]
  inhibition at 1 µM: -2.6%
